Measured values from ChEMBL document CHEMBL1123880, “Beta-adrenoceptor antagonist activity of bivalent ligands. 1. Diamide analogues of practolol” (J Med Chem, 1987).

Assays:
[1] = biological target: Beta-1 adrenergic receptor (Rattus norvegicus) (UniProt P18090); details: Heart, Membrane
Description: Apparent dissociation constant towards beta-1 adrenergic receptor in rat heart membranes using (2-6)x10E-9M of [3AH]-DHA in the presence or absence of 10e-5 M (+/-) propranolol.

[2] = biological target: Beta-2 adrenergic receptor (Rattus norvegicus) (UniProt P10608); details: Lung, Membrane
Description: Apparent dissociation constant towards beta-2 adrenergic receptor in rat lung membranes using (2-6)x10E-9M of [3AH]-DHA in the presence or absence of 10e-5 M (+/-) propranolol.

[3] = species on record: Rattus norvegicus; assay: Ratio of dissociation constant KD' of rat lung to KD' of rat heart; format: tissue-based

Beta-2 adrenergic receptor (Rattus norvegicus), sequence (P10608 whole entry, looked up): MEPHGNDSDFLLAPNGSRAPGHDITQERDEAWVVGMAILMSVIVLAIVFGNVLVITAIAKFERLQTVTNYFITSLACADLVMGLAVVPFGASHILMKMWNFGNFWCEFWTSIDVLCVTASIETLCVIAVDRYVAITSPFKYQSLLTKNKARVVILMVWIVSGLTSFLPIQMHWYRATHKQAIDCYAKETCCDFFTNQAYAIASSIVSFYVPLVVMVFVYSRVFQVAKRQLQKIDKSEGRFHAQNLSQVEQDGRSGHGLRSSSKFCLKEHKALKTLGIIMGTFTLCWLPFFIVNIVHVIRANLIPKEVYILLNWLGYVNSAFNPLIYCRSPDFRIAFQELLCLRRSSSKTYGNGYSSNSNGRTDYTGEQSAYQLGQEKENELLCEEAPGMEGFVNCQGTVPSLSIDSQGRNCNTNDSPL
Beta-1 adrenergic receptor (Rattus norvegicus), sequence (P18090 whole entry, looked up): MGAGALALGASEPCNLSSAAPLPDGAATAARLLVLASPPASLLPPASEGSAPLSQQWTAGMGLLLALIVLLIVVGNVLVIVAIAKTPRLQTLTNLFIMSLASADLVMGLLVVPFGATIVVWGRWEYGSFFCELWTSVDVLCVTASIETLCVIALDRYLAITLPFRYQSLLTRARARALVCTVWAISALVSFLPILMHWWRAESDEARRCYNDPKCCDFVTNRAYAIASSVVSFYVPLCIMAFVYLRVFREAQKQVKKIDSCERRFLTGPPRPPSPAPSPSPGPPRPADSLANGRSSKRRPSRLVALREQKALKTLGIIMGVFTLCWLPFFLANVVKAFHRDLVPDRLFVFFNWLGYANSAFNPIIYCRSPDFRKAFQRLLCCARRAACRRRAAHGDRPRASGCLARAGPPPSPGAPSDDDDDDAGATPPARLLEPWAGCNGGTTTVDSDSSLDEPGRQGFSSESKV

| KD' [1] [µM] | KD' [2] [µM] | Ratio [3] | SMILES |
| --- | --- | --- | --- |
| 32.2 | 186 | 5.8 | CC(C)NCC(O)COc1ccc(NC(=O)CNCCCCNCC(=O)Nc2ccc(OCC(O)CNC(C)C)cc2)cc1 (configuration not stated) |
| 4.4 | 3.9 | 0.9 | CC(C)NCC(O)COc1ccc(NC(=O)CCCCCCC(=O)Nc2ccc(OCC(O)CNC(C)C)cc2)cc1 (configuration not stated) |
| 0.1 | 1.4 | 14 | CC(C)NCC(O)COc1ccc(NC(=O)CCCCCCCCC(=O)Nc2ccc(OCC(O)CNC(C)C)cc2)cc1 (configuration not stated) |
| 9 | 67.5 | 7.5 | CC(C)NCC(O)COc1ccc(NC(=O)CCCCC(=O)Nc2ccc(OCC(O)CNC(C)C)cc2)cc1 (configuration not stated) |
| 0.5 | 3.9 | 7.8 | CC(C)NCC(O)COc1ccc(NC(=O)CNCCCCCCCCNCC(=O)Nc2ccc(OCC(O)CNC(C)C)cc2)cc1 (configuration not stated) |
| 5 | 28.1 | 5.6 | CC(C)NCC(O)COc1ccc(NC(=O)CNCCCCCCNCC(=O)Nc2ccc(OCC(O)CNC(C)C)cc2)cc1 (configuration not stated) |
| 16.3 | 28.1 | 1.7 | CC(C)NCC(O)COc1ccc(NC(=O)CCC(=O)Nc2ccc(OCC(O)CNC(C)C)cc2)cc1 (configuration not stated) |
| 6.2 | 36.5 | 5.9 | CC(=O)Nc1ccc(OCC(O)CNC(C)C)cc1 (configuration not stated) |
| 2.1 | 28.1 | 13.4 | CC(C)NCC(O)COc1ccc(NC(=O)CN2CCN(CC(=O)Nc3ccc(OCC(O)CNC(C)C)cc3)CC2)cc1 (configuration not stated) |
